# Test results taken from patent publication US20090149455A1, “Use of Triazolopyrimidines for Controlling Plant Diseases on Legumes” (Bayer CropScience AG, priority 2005, published 2009).
# Assay: log p
# Type: physicochemical
row,log p,Compound
1,2.14,CCNc1c(-c2c(F)cccc2F)c(Cl)nc2ncnn12 [Example 24]
2,2.42,CC(C)Nc1c(-c2ccccc2F)c(Cl)nc2ncnn12 [Example 141]
3,3.14,Fc1ccc(-c2c(Cl)nc3ncnn3c2N2CCCCC2)c(F)c1 [Example 194]
4,3.1,CCNc1c(-c2c(F)cc(C(F)(F)F)cc2Cl)c(Cl)nc2ncnn12 [Example 21]
5,2.87,CC1CCCN1c1c(-c2ccccc2)c(Cl)nc2ncnn12 (stereo not drawn) [Example 258]
6,4.79,CC1CC(C)CN(c2c(-c3c(F)cc(C(F)(F)F)cc3Cl)c(Cl)nc3ncnn23)C1 (stereo not drawn) [Example 180]
7,4.06,C=CCN(CC)c1c(-c2c(F)cc(C(F)(F)F)cc2Cl)c(Cl)nc2ncnn12 [Example 13]
8,3.92,C=C(C)CN(CC)c1c(-c2c(Cl)cccc2Cl)c(Cl)nc2ncnn12 [Example 99]
9,3.35,CC1CNN(c2c(-c3c(F)cc(F)cc3F)c(Cl)nc3ncnn23)CC1C (stereo not drawn) [Example 270]
10,3.74,C[C@H](Nc1c(-c2c(Cl)c(F)cc(C(F)(F)F)c2Cl)c(Cl)nc2ncnn12)C(F)(F)F [Example 44]
11,3.3,CC(Nc1c(-c2c(F)c(F)c(F)c(F)c2F)c(Cl)nc2ncnn12)C(F)(F)F (stereo not drawn) [Example 48]
12,3,Fc1c(F)c(F)c(-c2c(Cl)nc3ncnn3c2NCC(F)(F)F)c(F)c1F [Example 113]
13,3.21,C=C(C)CN(C)c1c(-c2ccc(F)cc2F)c(Cl)nc2ncnn12 [Example 98]
14,2.84,Fc1ccc(-c2c(Cl)nc3ncnn3c2N2CCCCO2)c(F)c1 [Example 205]
15,3.38,C[C@@H](Nc1c(-c2cc(F)ccc2F)c(Cl)nc2ncnn12)C(C)(C)C [Example 72]
16,4.05,C=C(C)CN(C)c1c(-c2c(F)cc(C(F)(F)F)cc2Cl)c(Cl)nc2ncnn12 [Example 96]
17,3.54,CC1CCN(c2c(-c3ccc(F)cc3F)c(Cl)nc3ncnn23)CC1 [Example 190]
18,2.63,C=C(C)CNc1c(-c2c(F)cc(F)cc2F)c(Cl)nc2ncnn12 [Example 94]
19,3.16,C[C@H](Nc1c(-c2c(F)cc(F)cc2C(F)(F)F)c(Cl)nc2ncnn12)C(F)(F)F [Example 54]
20,3.6,C=C(C)CN(CC)c1c(-c2c(F)cc(F)cc2F)c(Cl)nc2ncnn12 [Example 90]
21,3.3,CC1=CCCN(c2c(-c3ccc(F)cc3F)c(Cl)nc3ncnn23)C1 [Example 192]

row,log p,Compound
1,2.72,Clc1ccccc1-c1c(Cl)nc2ncnn2c1N1CCCC1 [Example 247]
2,3.35,CC1CCCCN1c1c(-c2ccccc2)c(Cl)nc2ncnn12 (stereo not drawn) [Example 259]
3,2.19,Fc1ccc(-c2c(Cl)nc3ncnn3c2N2CCOCC2)c(F)c1 [Example 195]
4,3.05,CC(C)[C@@H](C)Nc1c(-c2cc(F)ccc2F)c(Cl)nc2ncnn12 [Example 78]
5,2.94,Fc1ccc(-c2c(Cl)nc3ncnn3c2N2CC=CCC2)c(F)c1 [Example 186]
6,2.99,CC1CCCN1c1c(-c2ccc(F)cc2F)c(Cl)nc2ncnn12 (stereo not drawn) [Example 184]
7,2.85,CC(Nc1c(-c2c(F)cccc2Cl)c(Cl)nc2ncnn12)C(F)(F)F (stereo not drawn) [Example 30]
8,2.79,CC(C)Nc1c(-c2ccc(F)cc2Cl)c(Cl)nc2ncnn12 [Example 142]
9,3.53,CC(C)CC(C)Nc1c(-c2ccc(F)cc2F)c(Cl)nc2ncnn12 (stereo not drawn) [Example 81]
10,3.3,CC1CNN(c2c(-c3ccccc3Cl)c(Cl)nc3ncnn23)CC1C (stereo not drawn) [Example 278]
11,3.4,C[C@H](Nc1c(-c2cc(C(F)(F)F)ccc2Cl)c(Cl)nc2ncnn12)C(F)(F)F [Example 40]
12,4.09,Fc1c(F)c(F)c(-c2c(Cl)nc3ncnn3c2N2CCCCC2C(F)(F)F)c(F)c1F (stereo not drawn) [Example 208]
13,2.71,CCC(C)Nc1c(-c2c(F)cccc2F)c(Cl)nc2ncnn12 (stereo not drawn) [Example 5]
14,3.37,CC1CCN(c2c(-c3c(F)cccc3Cl)c(C#N)nc3ncnn23)CC1 [Example 280]
15,2.81,C[C@H](Nc1c(-c2ccc(F)cc2F)c(Cl)nc2ncnn12)C(F)(F)F [Example 52]
16,3.34,Fc1ccc(-c2c(Cl)nc3ncnn3c2N2CCC(C(F)(F)F)CC2)c(F)c1 [Example 193]
17,3.26,CCC(C)CNc1c(-c2c(F)cc(F)cc2F)c(Cl)nc2ncnn12 (stereo not drawn) [Example 11]
18,3.43,CC1CNN(c2c(-c3ccc(F)cc3Cl)c(Cl)nc3ncnn23)CC1C (stereo not drawn) [Example 266]
19,2.56,CC(C)Nc1c(-c2ccc(F)cc2F)c(Cl)nc2ncnn12 [Example 145]
20,3.2,CC(C)C(C)Nc1c(-c2c(F)cc(F)cc2F)c(Cl)nc2ncnn12 (stereo not drawn) [Example 3]
21,2.07,Fc1cccc(F)c1-c1c(Cl)nc2ncnn2c1N1CCCO1 [Example 157]

row,log p,Compound
1,3.9,CC1CC(C)CN(c2c(-c3ccc(F)cc3F)c(Cl)nc3ncnn23)C1 (stereo not drawn) [Example 187]
2,3.26,Clc1ccccc1-c1c(Cl)nc2ncnn2c1N1CCCCC1 [Example 257]
3,3.63,C[C@H](Nc1c(-c2c(F)cccc2Cl)c(Cl)nc2ncnn12)C(C)(C)C [Example 71]
4,3.11,Fc1c(F)c(F)c(-c2c(Cl)nc3ncnn3c2N2CCCC2)c(F)c1F [Example 207]
5,3.79,C[C@H](Nc1c(-c2c(Cl)cc(C(F)(F)F)cc2Cl)c(Cl)nc2ncnn12)C(F)(F)F [Example 36]
6,2.73,CCC(C)Nc1c(-c2ccccc2F)c(Cl)nc2ncnn12 (stereo not drawn) [Example 4]
7,2.43,CCCNc1c(-c2ccccc2F)c(Cl)nc2ncnn12 [Example 150]
8,2.64,CC(Nc1c(-c2c(F)cccc2F)c(Cl)nc2ncnn12)C(F)(F)F (stereo not drawn) [Example 47]
9,3.53,CC(Nc1c(-c2c(F)cc(F)cc2F)c(Cl)nc2ncnn12)C(C)(C)C (stereo not drawn) [Example 67]
10,3.16,C[C@H](Nc1c(-c2cccc3c2OC(F)(F)O3)c(Cl)nc2ncnn12)C(F)(F)F [Example 55]
11,3.07,C[C@H](Nc1c(-c2ccc(F)cc2C(F)(F)F)c(Cl)nc2ncnn12)C(F)(F)F [Example 59]
12,3.92,CC(Nc1c(-c2c(Cl)cc(OC(F)(F)F)cc2Cl)c(Br)nc2ncnn12)C(F)(F)F (stereo not drawn) [Example 65]
13,1.84,CNc1c(-c2c(F)cccc2F)c(Cl)nc2ncnn12 [Example 82]
14,3.01,Fc1ccccc1-c1c(Cl)nc2ncnn2c1N1CCCCC1 [Example 164]
15,3.18,CC(Nc1c(-c2ccc(F)c(Cl)c2)c(Cl)nc2ncnn12)C(F)(F)F (stereo not drawn) [Example 43]
16,2.8,Fc1ccc(-c2c(Cl)nc3ncnn3c2N2CCSCC2)c(F)c1 [Example 196]
17,3.75,CC(C)(Nc1c(-c2c(F)c(F)c(F)c(F)c2F)c(Cl)nc2ncnn12)C(F)(F)F [Example 17]
18,2.72,CCNc1c(-c2c(F)c(F)c(F)c(F)c2F)c(Cl)nc2ncnn12 [Example 25]
19,3.9,CC(C)(C)Nc1c(-c2c(F)cc(C(F)(F)F)cc2Cl)c(Cl)nc2ncnn12 [Example 153]
20,3.05,CC(C)Nc1c(-c2c(F)c(F)c(F)c(F)c2F)c(Cl)nc2ncnn12 [Example 144]
21,2.4,Fc1cc(F)c(-c2c(Cl)nc3ncnn3c2N2CCCO2)c(F)c1 [Example 203]
